Reference: US7879835B2 (Korea Research Institute of Chemical Technology, priority 2004, dated 2011)

Experiments:
[1] = In vitro pharmacokinetics: metabolic stability in liver microsome; format: in vitro ADME; conditions: human liver microsome 1 mg/ml, 20 μM compound
Experimental: Metabolic stabilities of the compounds of the Examples were examined by employing microsome samples prepared from the human liver.
Each 20 μM of the compounds were reacted with 1 mg/ml of liver microsome and the half-lives and one-hour stabilities of the compounds were determined.

[2] = tested on: rats; test: In vivo acute toxicity test (LD50); conditions: single dose, 2 weeks observation
Experimental: In order to determine the acute toxicities of the compounds prepared in Examples, 6-week old specific pathogen-free (SPF) rats each weighing […] were divided into groups of 10 rat each.
In case of subcutaneous administration, each of the compounds was dissolved in 5% PEG400 solution to a concentration of 20 mg/ml, the resulting solution was serially diluted with 5% PEG400 solution to concentrations of 5, 2.5, 1.25 and 0.625 mg/ml, and the dilutions were subcutaneously injected once to the rats at a dose of 10 ml/kg body weight.
In case of oral administration, each of the compounds was dissolved in soybean oil to a concentration of 180 mg/ml, the resulting solution was serially diluted with soybean oil to concentrations of 80, 20 and 5 mg/ml, and the dilutions were orally administered once to the rats at a dose of 20 ml/kg body weight. […]
During 2 weeks after the administration of the compounds, the death rate, clinical symptoms and weight changes of the rats were observed, and hematological and biochemical tests on blood samples were performed. Then, the rats were sacrificed and the internal organs were visually examined to check any abnormal signs in the organs of chest and abdomen.

[3] = tested on: osteoclast (TRAP-positive multinuclear cell) formation; test: Inhibitory effect on osteoclast formation (TRAP staining); format: cell-based, mice; conditions: 8 days culture with M-CSF and RANKL, compared to control
Method in brief: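 Non-adherent bone marrow cells from 7–9-week-old female mice, 2×10^5 per well, cultured 8 days with M-CSF (20 ng/ml), RANKL (30 ng/ml) and compound at 0.3, 1.0 or 3 μM. Formation scored by TRAP staining after fixation, 1 h at 37 °C, pH 5.0.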

[4] = tested on: MG-63 cells; test: Cytotoxicity test against osteoblast (MTT); format: cell-based, human
Method in brief: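 MG-63 human osteosarcoma cells exposed to 0.1, 0.3, 1.0 and 3.0 μM compound in DMEM with 10% FBS. Osteoclast progenitors in the same text were run at 2, 4 and 8 μM, 48 h, α-MEM + 20 ng/ml M-CSF, 37 °C; MTT added 3 h before end, A550 as % of control.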

[5] = tested on: osteoclasts; test: Inhibitory effect on resorption activity of osteoclast (resorption pit area on calcium phosphate-coated plate); format: cell-based, mice; conditions: compared to control
Experimental: After finishing culture, the plate was washed with distilled water, and 50 μl/well of 5% sodium hypochlorite was added to the plate. The plate was let alone for 5 min, washed again with distilled water to remove the adherent cells, and dried at room temperature. Then, the area of formed resorption pits was calculated by means of Image Pro Plus software (Media Cybernetics Ver. 3.0).

[6] = In vivo pharmacokinetics using female mice (serum concentration, HPLC)
Experimental: Female mice each weighing […] were divided into groups of 5 mice each. The mice were anesthetized with ether, catheterized in their femoral artery and vein, respectively, and administered with 0.5 mg/kg body weight of compounds 234 and 274, and 5 mg/kg body weight of compounds 388, 404 and 415, respectively, via intravenous injection. Alternatively, 15 mg/kg body weight of compound 274 and 10 mg/kg body weight of compound 234 were orally administered to the mice.
At 0, 5, 10, 15 and 30 minutes and 1, 2, 4, 6, 9 and 12 hours after the intravenous injection, or at 0, 10, 20 and 40 minutes and 1, 2, 4, 6, 9 and 12 hours after the oral administration, 0.3 ml blood samples were taken from the mice through femoral artery. The blood samples were kept on an ice bath for 30 minutes and centrifuged at 3,000 rpm for 10 minutes to obtain a supernatant (serum). The supernatant samples were stored at −20° C.
Standard solution: Compounds 234, 274, 388, 404 and 415 were respectively dissolved in methanol to a concentration of 1 mg/ml to obtain stock solutions. The stock solutions were diluted with methanol to obtain standard solutions having concentrations of 40, 20, 10, 2, 1, 0.5, 0.2, 0.05 and 0.02 μg/ml, respectively.
Standard calibration curve: A stand calibration curve was prepared by employing calibration concentrations of 0.002, 0.005, 0.02, 0.05, 0.1, 0.2, 1, 2 and 4 μg/ml.
10 μl each of the standard solutions prepared above was added to 100 μl of normal serum sample and diluted 10 times. 250 μl of acetonitrile was added to the resulting dilution and the mixture was centrifuged for 10 minutes to obtain a supernatant. 300 μl of the supernatant was dried by evaporation under a nitrogen atmosphere and reconstituted by adding 50 μl of methanol. 20 μl of the resulting solution was analyzed by HPLC to prepare a standard calibration curve. HPLC was performed with Shimadzu ODS2 column (4.6×250 mm, 5 μm by employing a mixture of methanol/water (90/10 (v/v)) as the mobile phase at a flow rate of 1.2 ml/min, and measuring the absorbance at 240 nm.
Extraction: 100 μl of the serum sample obtained in (4-2-1) was put into a 1 ml microtube and 10 μl of methanol was added thereto. 250 μl of acetonitrile was added to the microtube and the mixture was centrifuged for 10 minutes to obtain a supernatant. 300 μl of the supernatant was dried by evaporation under a nitrogen atmosphere and reconstituted by adding 50 μl of methanol. 20 μl of the resulting solution was analyzed by the HPLC method as above.
Average concentrations of the compounds in the serum samples were plotted in a semi-log scale against the time lapsed after the administration, and the pharmacokinetic parameters were determined as a non-compartment open model by employing WinNonlin® program (Pharsight Corporation).

With CO/C=C(/C(=O)OC)c1ccccc1COc1cccc(OCCN2CCOCC2)c1 [compound 234] the Half-life [1] was over 3 h, the One-hour stability [1] was 83% and the LD50 ([2]; PO) was 100-300 mg/kg body weight. The LD50 ([2]; SC) was 7 mg/kg body weight, the “Osteoclast formation inhibitory effects (%)” value ([3]; 0.3 μM) was 25% and the “Osteoclast formation inhibitory effects (%)” value ([3]; 1.0 μM) was 100%. For the same compound, the “Osteoclast formation inhibitory effects (%)” value ([3]; 3.0 μM) was 100%, the “relative absorbance relative to that of the control (set as 100), MTT” value (from here on “relative absorbance relative to that”) ([4]; 0.33 uM) was 98 and the “relative absorbance relative to that” value ([4]; 1 uM) was 115. The “relative absorbance relative to that” value ([4]; 3 uM) was 97, the “Reduction (%) of the resorption pit area of osteoclasts” value (shortened to “Reduction (%)”) ([5]; 0.3 uM) was 95% and the “Reduction (%)” value ([5]; 1 uM) was 100%. The “Reduction (%)” value ([5]; 3 uM) was 100%, the “AUC (area under the curve of blood concentration versus time)” value ([6]; I.V.) was 477.6 ± 96.4 µg·h/mL and the “CL (clearance)” value ([6]; I.V.) was 1.1 ± 0.2 mL/h. For the same compound, the Half-life ([6]; I.V.) was 10.6 ± 4.8 h, the “Vd (volume of distribution)” value ([6]; I.V.) was 0.0152 ± 0.0052 L/kg and the “AUC (area under the curve of blood concentration versus time)” value ([6]; Oral) was 680.4 ± 426.2 µg·h/mL. The “CL (clearance)” value ([6]; Oral) was 19.5 ± 10.6 mL/h, the Half-life ([6]; Oral) was 12.8 ± 7.7 h and the “Vd (volume of distribution)” value ([6]; Oral) was 0.3544 ± 0.2456 L/kg. It also gave a bioavailability ([6]; oral versus I.V.) of 35.4%.
